The numbers were not newly measured in patent EP0435915B1, “COMPOSITIONS FOR THE TREATMENT OF LEISHMANIASIS” (priority 1988, dated 1990), which cites them from elsewhere.

This data set relates to leishmaniasis lesions. As to conditions: reported by GB-A-2117237; result in words.

`NC[C@@H]1O[C@H](O[C@H]2[C@@H](O)[C@H](O[C@@H]3[C@@H](O)[C@H](N)C[C@H](N)[C@H]3O[C@H]3O[C@H](CO)[C@@H](O)[C@H](O)[C@H]3N)O[C@@H]2CO)[C@H](N)[C@@H](O)[C@@H]1O` [paromomycin, 0-2,6-diamino-2,6-dideoxy-β-L-idopyranosyl-(1→3)-0-β-D-ribofuranosyl-(1→5)-0-[2-amino-2-deoxy-α-D-glucopyranosyl-(1→4)]-2-deoxystreptamine]: the “effect when applied topically to leishmaniasis lesions” value is reported as “ineffective”.
